Six molecules from ChEMBL document CHEMBL5724914, “Linking interpersonal differences in gut microbiota composition and drug biotransformation activity” (2024) can be followed below.

Structures are written as SMILES.

Data set [1] can be described thus: The drug is tested on Z-004 corresponding to metagenome with ENA study accession number: PRJEB37062 and ENA sample accession number: ERS12561804 for biotransformation under anaerobic condition. The drug concentrations were measured over 9 timepoints collected between 0 and 24 hours of incubation by liquid-chromatography-coupled mass spectrometry (LC–MS). The settings on record: 2 µM.

The conditions of data set [2]: human gut metagenome, 24 h, 2 µM.
The conditions of data set [3]: human gut metagenome, 24 h, 2 µM. This is another data set of the same source.
For data set [4] the following is noted: human gut metagenome, 24 h, 2 µM. This is another data set of the same source.
Data set [5] is described as follows: The drug is tested on Z-025 corresponding to rabbit gut metagenome with ENA study accession number: PRJEB37062 and ENA sample accession number: ERS12561824 for biotransformation under anaerobic condition. The drug concentrations were measured over 9 timepoints collected between 0 and 24 hours of incubation by liquid-chromatography-coupled mass spectrometry (LC–MS). The note with it: 2 µM.

Data set [6] is described as follows: The drug is tested on WLS-086 corresponding to human gut metagenome with ENA study accession number: PRJEB37062 and ENA sample accession number: ERS12561752 for biotransformation under anaerobic condition. The drug concentrations were measured over 9 timepoints collected between 0 and 24 hours of incubation by liquid-chromatography-coupled mass spectrometry (LC–MS). The note with it: 2 µM.

For data set [7] the following is noted: human gut metagenome, 24 h, 2 µM. The source holds these as a separate data set.
The nature of data set [8]: The drug is tested on Z-005 corresponding to metagenome with ENA study accession number: PRJEB37062 and ENA sample accession number: ERS12561805 for biotransformation under anaerobic condition. The drug concentrations were measured over 9 timepoints collected between 0 and 24 hours of incubation by liquid-chromatography-coupled mass spectrometry (LC–MS). The note with it: 2 µM.

The nature of data set [9]: The drug is tested on WLS-098 corresponding to human gut metagenome with ENA study accession number: PRJEB37062 and ENA sample accession number: ERS12561754 for biotransformation under anaerobic condition. The drug concentrations were measured over 9 timepoints collected between 0 and 24 hours of incubation by liquid-chromatography-coupled mass spectrometry (LC–MS). The settings on record: 2 µM.

Data set [10] is described as follows: The drug is tested on WLS-310 corresponding to human gut metagenome with ENA study accession number: PRJEB37062 and ENA sample accession number: ERS12561785 for biotransformation under anaerobic condition. The drug concentrations were measured over 9 timepoints collected between 0 and 24 hours of incubation by liquid-chromatography-coupled mass spectrometry (LC–MS). The settings on record: 2 µM.

The conditions of data set [11]: human gut metagenome, 24 h, 2 µM. The source holds these as a separate data set.
The conditions of data set [12]: human gut metagenome, 24 h, 2 µM. The source holds these as a separate data set.
Data set [13] is described as follows: The drug is tested on WLS-006 corresponding to human gut metagenome with ENA study accession number: PRJEB37062 and ENA sample accession number: ERS12561741 for biotransformation under anaerobic condition. The drug concentrations were measured over 9 timepoints collected between 0 and 24 hours of incubation by liquid-chromatography-coupled mass spectrometry (LC–MS). The note with it: 2 µM.

For data set [14] the following is noted: human gut metagenome, 24 h, 2 µM. This is another data set of the same source.
Data set [15] can be described thus: The drug is tested on WLS-090 corresponding to human gut metagenome with ENA study accession number: PRJEB37062 and ENA sample accession number: ERS12561753 for biotransformation under anaerobic condition. The drug concentrations were measured over 9 timepoints collected between 0 and 24 hours of incubation by liquid-chromatography-coupled mass spectrometry (LC–MS). The note with it: 2 µM.

Data set [16] in a line: The drug is tested on WLS-039 corresponding to human gut metagenome with ENA study accession number: PRJEB37062 and ENA sample accession number: ERS12561746 for biotransformation under anaerobic condition. The drug concentrations were measured over 9 timepoints collected between 0 and 24 hours of incubation by liquid-chromatography-coupled mass spectrometry (LC–MS). The note with it: 2 µM.

The conditions of data set [17]: human gut metagenome, 24 h, 2 µM. This is another data set of the same source.
A short description of data set [18]: The drug is tested on Z-016 corresponding to mouse gut metagenome with ENA study accession number: PRJEB37062 and ENA sample accession number: ERS12561815 for biotransformation under anaerobic condition. The drug concentrations were measured over 9 timepoints collected between 0 and 24 hours of incubation by liquid-chromatography-coupled mass spectrometry (LC–MS). The settings on record: 2 µM.

Data set [19] can be described thus: The drug is tested on Z-008 corresponding to metagenome with ENA study accession number: PRJEB37062 and ENA sample accession number: ERS12561808 for biotransformation under anaerobic condition. The drug concentrations were measured over 9 timepoints collected between 0 and 24 hours of incubation by liquid-chromatography-coupled mass spectrometry (LC–MS). The note with it: 2 µM.

A short description of data set [20]: The drug is tested on Z-030 corresponding to mouse gut metagenome with ENA study accession number: PRJEB37062 and ENA sample accession number: ERS12561829 for biotransformation under anaerobic condition. The drug concentrations were measured over 9 timepoints collected between 0 and 24 hours of incubation by liquid-chromatography-coupled mass spectrometry (LC–MS). The settings on record: 2 µM.
Note: call rule not given here.

Turning to `O=C(O)COCCN1CCN(C(c2ccccc2)c2ccc(Cl)cc2)CC1` (stereo not given) [CETIRIZINE], the “Bacterial Biotransformation” value is given as “Compound metabolized” in [1]; “Compound metabolized” in data set [2]; “Compound metabolized” in data set [3]; “Compound metabolized” in data set [4]; “Compound NOT metabolized” in data set [5]; “Compound metabolized” in data set [6]. For the same molecule, the “Bacterial Biotransformation” value in [7], in [8], in [9], in data set [10], in data set [11] and in data set [12] was “Compound metabolized” each time. Further, the “Bacterial Biotransformation” value in data set [13], in data set [14], in data set [15], in data set [16], in data set [17] and in data set [18] was “Compound metabolized” each time. Moreover, the “Bacterial Biotransformation” value in data set [19] and in data set [20] was “Compound NOT metabolized” in each case.
Regarding `CN/C(=N/CCSCc1nc[nH]c1C)NC#N` [CIMETIDINE], the “Bacterial Biotransformation” value in data set [1] was “Compound NOT metabolized”; in data set [2] it was “Compound NOT metabolized”; in data set [3], “Compound NOT metabolized”; in [4], “Compound metabolized”; in data set [5], “Compound NOT metabolized”; in [6], “Compound metabolized”. Besides, the “Bacterial Biotransformation” value in data set [7], in data set [8], in data set [9], in data set [10], in data set [11] and in data set [12] was “Compound metabolized” throughout. The “Bacterial Biotransformation” value in [13] is recorded as “Compound metabolized”; in data set [14] it was “Compound metabolized”; in data set [15], “Compound metabolized”; in data set [16] it was “Compound NOT metabolized”; in [17], “Compound NOT metabolized”; in [18], “Compound NOT metabolized”. The “Bacterial Biotransformation” value in [19] and in data set [20] was “Compound NOT metabolized” each time.
With `Br.CN(C)CCCC1(c2ccc(F)cc2)OCc2cc(C#N)ccc21` (stereo not given) [CITALOPRAM HYDROBROMIDE], the “Bacterial Biotransformation” value in data set [1] is given as “Compound NOT metabolized”; in data set [2] it was “Compound NOT metabolized”; in data set [3], “Compound NOT metabolized”; in data set [4] it was “Compound metabolized”; in data set [5], “Compound NOT metabolized”; in [6], “Compound metabolized”. The “Bacterial Biotransformation” value in [7] is “Compound metabolized”; in [8], “Compound NOT metabolized”; in data set [9], “Compound metabolized”; in [10], “Compound metabolized”; in data set [11] it was “Compound metabolized”; in data set [12], “Compound NOT metabolized”. Besides, the “Bacterial Biotransformation” value in [13] is given as “Compound metabolized”; in [14], “Compound NOT metabolized”; in data set [15], “Compound metabolized”; in data set [16] it was “Compound NOT metabolized”; in [17] it was “Compound NOT metabolized”; in data set [18], “Compound NOT metabolized”. Besides, the “Bacterial Biotransformation” value in [19] and in data set [20] was “Compound NOT metabolized” in each case.
Regarding `CN(C)CCC=C1c2ccccc2C=Cc2ccccc21` [CYCLOBENZAPRINE], the “Bacterial Biotransformation” value in data set [1] is reported as “Compound metabolized”; in [2], “Compound NOT metabolized”; in data set [3], “Compound metabolized”; in data set [4], “Compound metabolized”; in data set [5] it was “Compound metabolized”; in data set [6], “Compound metabolized”. The “Bacterial Biotransformation” value in data set [7] was “Compound metabolized”; in data set [8], “Compound NOT metabolized”; in data set [9], “Compound metabolized”; in data set [10] it was “Compound metabolized”; in data set [11], “Compound metabolized”; in data set [12], “Compound metabolized”. Further, the “Bacterial Biotransformation” value is “Compound metabolized” in [13]; “Compound metabolized” in [14]; “Compound metabolized” in data set [15]; “Compound metabolized” in [16]; “Compound metabolized” in data set [17]; “Compound NOT metabolized” in data set [18]. Also, the “Bacterial Biotransformation” value in data set [19] and in data set [20] was “Compound NOT metabolized” throughout.
For `O=C(Nc1ccccc1)OCC(CN1CCCCC1)OC(=O)Nc1ccccc1` (stereo not given) [DIPERODON], the “Bacterial Biotransformation” value in data set [1] is “Compound metabolized”; in [2], “Compound NOT metabolized”; in data set [3] it was “Compound NOT metabolized”; in data set [4] it was “Compound metabolized”; in data set [5], “Compound metabolized”; in [6] it was “Compound metabolized”. Further, the “Bacterial Biotransformation” value in data set [7] is on record as “Compound metabolized”; in [8] it was “Compound NOT metabolized”; in data set [9], “Compound metabolized”; in data set [10], “Compound metabolized”; in data set [11] it was “Compound NOT metabolized”; in [12], “Compound NOT metabolized”. The “Bacterial Biotransformation” value in data set [13] is reported as “Compound NOT metabolized”; in data set [14], “Compound metabolized”; in data set [15], “Compound metabolized”; in data set [16], “Compound NOT metabolized”; in data set [17] it was “Compound NOT metabolized”; in data set [18] it was “Compound NOT metabolized”. Moreover, the “Bacterial Biotransformation” value in [19] and in [20] was “Compound NOT metabolized” in each case.
Turning to `CC(C)N(CCC(C(N)=O)(c1ccccc1)c1ccccn1)C(C)C.O=P(O)(O)O` (stereo not given) [DISOPYRAMIDE PHOSPHATE], the “Bacterial Biotransformation” value in data set [1] is reported as “Compound NOT metabolized”; in data set [2], “Compound NOT metabolized”; in data set [3], “Compound NOT metabolized”; in [4], “Compound NOT metabolized”; in data set [5], “Compound NOT metabolized”; in [6], “Compound metabolized”. The “Bacterial Biotransformation” value in data set [7] is “Compound NOT metabolized”; in data set [8] it was “Compound NOT metabolized”; in data set [9], “Compound metabolized”; in data set [10], “Compound metabolized”; in [11] it was “Compound metabolized”; in data set [12] it was “Compound NOT metabolized”. In addition, the “Bacterial Biotransformation” value in data set [13] is given as “Compound metabolized”; in data set [14], “Compound NOT metabolized”; in data set [15], “Compound metabolized”; in [16], “Compound NOT metabolized”; in data set [17] it was “Compound NOT metabolized”; in [18] it was “Compound NOT metabolized”. Also, the “Bacterial Biotransformation” value in data set [19] and in [20] was “Compound NOT metabolized” in each case.
